Measurements reported in PubChem BioAssay AID1963432 (Molecular Pharmacology Branch, DTP, NCI, 2024).

System: SYO-1 complex spheroid growth, percent test/control
Assay: Anticancer human tumor SYO-1 cell line growth inhibition [Asc];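 further: compound exposure lasted 7 days after spheroids grew 3 days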;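 on viability, T/C: 100% = DMSO vehicle control viability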
Conditions: for IC50: curve of first compound; for viability, T/C: stronger effect = lower value
Outline: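 Spheroid model: tumor line + HUVEC + hMSC. Single agents and combinations; top conc. at/near clinical Cmax (10 microM if undetermined), half-log dilutions. DMSO stocks at 800-fold test concentration.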

Compound: CNC(C)C(=O)NC1CN(S(=O)(=O)c2cccc(S(=O)(=O)N3CCC4CCC(C(=O)NC(c5ccccc5)c5ccccc5)N4C(=O)C(NC(=O)C(C)NC)C3)c2)CCC2CCC(C(=O)NC(c3ccccc3)c3ccccc3)N2C1=O (centres undefined) + Cc1c(S(C)(=O)=O)c(-c2cc(F)cc(N3CCN(c4ccc(NS(=O)(=O)c5ccc(NC(CCN6CCC(C(=O)OCCCP(=O)(O)O)CC6)CSc6ccccc6)c(S(=O)(=O)C(F)(F)F)c5)cc4)CC3)c2)c(-c2ccc(Cl)cc2)n1C(C)C
- IC50 (second compound 0.0316 µM): > 1000 nM
- IC50 (second compound 0.1 µM): > 1000 nM
- IC50 (second compound 0.316 µM): > 1000 nM
- IC50 (second compound 1 µM): > 1000 nM
- IC50 (second compound 3.16 µM): > 1000 nM
- IC50 (second compound 10 µM): > 1000 nM
- viability, T/C (second compound 0.0316 µM, first compound 0.00316 µM): 94.8%
- viability, T/C (second compound 0.0316 µM, first compound 0.01 µM): 97.2%
- viability, T/C (second compound 0.0316 µM, first compound 0.0316 µM): 95.6%
- viability, T/C (second compound 0.0316 µM, first compound 0.1 µM): 93.3%
- viability, T/C (second compound 0.0316 µM, first compound 0.316 µM): 98.4%
- viability, T/C (second compound 0.0316 µM, first compound 1 µM): 103%
- viability, T/C (second compound 0.1 µM, first compound 0.00316 µM): 101%
- viability, T/C (second compound 0.1 µM, first compound 0.01 µM): 99.9%
- viability, T/C (second compound 0.1 µM, first compound 0.0316 µM): 98.4%
- viability, T/C (second compound 0.1 µM, first compound 0.1 µM): 97.9%
- viability, T/C (second compound 0.1 µM, first compound 0.316 µM): 95.7%
- viability, T/C (second compound 0.1 µM, first compound 1 µM): 92.8%
- viability, T/C (second compound 0.316 µM, first compound 0.00316 µM): 96.4%
- viability, T/C (second compound 0.316 µM, first compound 0.01 µM): 91.8%
- viability, T/C (second compound 0.316 µM, first compound 0.0316 µM): 89%
- viability, T/C (second compound 0.316 µM, first compound 0.1 µM): 99.3%
- viability, T/C (second compound 0.316 µM, first compound 0.316 µM): 96.6%
- viability, T/C (second compound 0.316 µM, first compound 1 µM): 85.8%
- viability, T/C (second compound 1 µM, first compound 0.00316 µM): 96.6%
- viability, T/C (second compound 1 µM, first compound 0.01 µM): 90.8%
- viability, T/C (second compound 1 µM, first compound 0.0316 µM): 89.8%
- viability, T/C (second compound 1 µM, first compound 0.1 µM): 90.5%
- viability, T/C (second compound 1 µM, first compound 0.316 µM): 88.9%
- viability, T/C (second compound 1 µM, first compound 1 µM): 101%
- viability, T/C (second compound 3.16 µM, first compound 0.00316 µM): 98.5%
- viability, T/C (second compound 3.16 µM, first compound 0.01 µM): 88.1%
- viability, T/C (second compound 3.16 µM, first compound 0.0316 µM): 84.5%
- viability, T/C (second compound 3.16 µM, first compound 0.1 µM): 85.5%
- viability, T/C (second compound 3.16 µM, first compound 0.316 µM): 89.9%
- viability, T/C (second compound 3.16 µM, first compound 1 µM): 82%
- viability, T/C (second compound 10 µM, first compound 0.00316 µM): 94.7%
- viability, T/C (second compound 10 µM, first compound 0.01 µM): 83.9%
- viability, T/C (second compound 10 µM, first compound 0.0316 µM): 74.6%
- viability, T/C (second compound 10 µM, first compound 0.1 µM): 72.5%
- viability, T/C (second compound 10 µM, first compound 0.316 µM): 85.7%
- viability, T/C (second compound 10 µM, first compound 1 µM): 71.1%

Compound: Cc1nc(N2CCC3(CC2)COC(C)C3N)c(CO)nc1Sc1ccnc(N)c1Cl (centres undefined) + CNC(C)C(=O)NC1CN(S(=O)(=O)c2cccc(S(=O)(=O)N3CCC4CCC(C(=O)NC(c5ccccc5)c5ccccc5)N4C(=O)C(NC(=O)C(C)NC)C3)c2)CCC2CCC(C(=O)NC(c3ccccc3)c3ccccc3)N2C1=O
- IC50 (second compound 0.00316 µM): > 3000 nM
- IC50 (second compound 0.01 µM): > 3000 nM
- IC50 (second compound 0.0316 µM): > 3000 nM
- IC50 (second compound 0.1 µM): > 3000 nM
- IC50 (second compound 0.316 µM): > 3000 nM
- IC50 (second compound 1 µM): > 3000 nM
- viability, T/C (second compound 0.00316 µM, first compound 0.00949 µM): 107%
- viability, T/C (second compound 0.00316 µM, first compound 0.03 µM): 105%
- viability, T/C (second compound 0.00316 µM, first compound 0.0949 µM): 109%
- viability, T/C (second compound 0.00316 µM, first compound 0.3 µM): 96.5%
- viability, T/C (second compound 0.00316 µM, first compound 0.949 µM): 106%
- viability, T/C (second compound 0.00316 µM, first compound 3 µM): 102%
- viability, T/C (second compound 0.01 µM, first compound 0.00949 µM): 105%
- viability, T/C (second compound 0.01 µM, first compound 0.03 µM): 95.8%
- viability, T/C (second compound 0.01 µM, first compound 0.0949 µM): 101%
- viability, T/C (second compound 0.01 µM, first compound 0.3 µM): 105%
- viability, T/C (second compound 0.01 µM, first compound 0.949 µM): 110%
- viability, T/C (second compound 0.01 µM, first compound 3 µM): 105%
- viability, T/C (second compound 0.0316 µM, first compound 0.00949 µM): 111%
- viability, T/C (second compound 0.0316 µM, first compound 0.03 µM): 104%
- viability, T/C (second compound 0.0316 µM, first compound 0.0949 µM): 102%
- viability, T/C (second compound 0.0316 µM, first compound 0.3 µM): 106%
- viability, T/C (second compound 0.0316 µM, first compound 0.949 µM): 115%
- viability, T/C (second compound 0.0316 µM, first compound 3 µM): 108%
- viability, T/C (second compound 0.1 µM, first compound 0.00949 µM): 109%
- viability, T/C (second compound 0.1 µM, first compound 0.03 µM): 103%
- viability, T/C (second compound 0.1 µM, first compound 0.0949 µM): 104%
- viability, T/C (second compound 0.1 µM, first compound 0.3 µM): 116%
- viability, T/C (second compound 0.1 µM, first compound 0.949 µM): 110%
- viability, T/C (second compound 0.1 µM, first compound 3 µM): 110%
- viability, T/C (second compound 0.316 µM, first compound 0.00949 µM): 105%
- viability, T/C (second compound 0.316 µM, first compound 0.03 µM): 107%
- viability, T/C (second compound 0.316 µM, first compound 0.0949 µM): 108%
- viability, T/C (second compound 0.316 µM, first compound 0.3 µM): 107%
- viability, T/C (second compound 0.316 µM, first compound 0.949 µM): 119%
- viability, T/C (second compound 0.316 µM, first compound 3 µM): 102%
- viability, T/C (second compound 1 µM, first compound 0.00949 µM): 103%
- viability, T/C (second compound 1 µM, first compound 0.03 µM): 109%
- viability, T/C (second compound 1 µM, first compound 0.0949 µM): 104%
- viability, T/C (second compound 1 µM, first compound 0.3 µM): 103%
- viability, T/C (second compound 1 µM, first compound 0.949 µM): 115%
- viability, T/C (second compound 1 µM, first compound 3 µM): 107%
